Data reported in patent US20240174649A1, “CULLIN-RING E3 UBIQUITIN LIGASE 4 INHIBITOR COMPOUNDS AND METHODS OF THEIR USE” (ICAHN SCHOOL OF MEDICINE AT MOUNT SINAI, priority 2021, published 2024).
Like-named read-outs stand apart in the source and are kept apart here.

How the values were obtained:
ROC1-CUL1 CTD [1] = biological target: T1, ROC1-CUL1 CTD (Homo sapiens (Human), UniProt Q13616); assay: FRET K48 di-Ub synthesis assay; assay type: biochemical; conditions: for E3 inhibition: up to 80 μM
Experimental: The high throughput screen (“HTS”) employed the FRET K48 di-Ub assay as established previously (Wu et al., “Suramin Inhibits Cullin-RING E3 Ubiquitin Ligases,” PNAS 113(14):E2011-2018 (2016), which is hereby incorporated by reference in its entirety) and was carried out at Memorial Sloan Kettering Cancer Center Core Screening Facility. For HTS, the assay was formatted using three reagent addition steps. Library compounds, stored in 10 mM stock plates (DMSO), were transferred into assay plates and each well contains a single compound at 100 μM in 1 μl 10% DMSO. The complete complement of proteins/enzymes (6.5 μl), containing Ub E1 (14 nM), E2 Cdc34 (124 nM), E3 ROC1-CUL1 CTD (0.2 μM), Ub C31-I555 (donor, 0.93 μM), and Ub C64-I647 (receptor, 1.62 μM), in the presence of 33 mM Tris-HCl (pH 7.4), 1.7 mM MgCl2, 0.33 mM DTT, and BSA (0.07 mg/ml), was added to each plate. The concentrations of all five proteins have been determined based on Km measurement as described previously (Wu et al., “Suramin Inhibits Cullin-RING E3 Ubiquitin Ligases,” PNAS 113(14):E2011-2018 (2016), which is hereby incorporated by reference in its entirety). To initiate ubiquitination, ATP (2.5 μl in 2.64 mM) was added and its final concentration was 0.66 mM. The concentration of ATP was set high to minimize identification of nucleotide analogues because the priority of the HTS is to find small molecule modulators specific for E3 ROC1-CUL1 CTD. In this setting, the concentration of compound and DMSO in a given well were 10 μM and 1%, respectively. After incubation at room temperature for 45 min, EDTA (30 mM) was added to terminate the reaction. The reaction was quantified based on the ratio of acceptor:donor fluorescence (excitation 515 nm; donor emission 570 nm; acceptor emission 670 nm) using a Victor high-throughput plate reader (Perkin Elmer).
(§1) The reaction mixture (15 μl) was assembled onto a 384-well microtiter plate. […] ATP (0.66 mM) was then added to the mix followed by a brief centrifugation to settle down the mixture. The resulting plate was incubated at 30° C. in the Synergy-H1 reader and the fluorescence signal was monitored. Ubiquitination was quantified based on the ratio of acceptor:donor fluorescence (excitation 515 nm; donor emission 570 nm, acceptor emission 670 nm).

ROC1-CUL1 CTD [2] = biological target: T1, ROC1-CUL1 CTD; assay: Ligand binding by MST
Experimental: E3 ligase complex (˜2 nmol) was labeled with fluorescent dye using Monolith NT Protein Labeling Kit Red-NHS (Nanotemper) in the presence of 20 mM MES pH 6.0 and 150 mM NaCl. Excess dye was removed using the included gravity flow column and eluted in storage buffer containing 20 mM Tris-HCl, pH 7.4, 150 mM NaCl, and 10% glycerol. The fluorescent E3 complex (˜0.01-0.06 μM) was mixed with increasing amount of compound in a buffer (20 μl) that contains phosphate-buffered saline, 0.1% TWEEN-20 and 2% prionex. Following incubation at room temperature for 30 min, the reaction mixture loaded into premium coated capillaries and analyzed in the Monolith NT.115 machine (Nanotemper). Thermophoresis was recorded for each sample and binding curve was generated and Kd was calculated using the included software. For reactions where significant ligand specific fluorescence quenching occurred (verified by manufacturer's SDS Denaturation-test protocol), the initial fluorescence quenching data was used directly to calculate the binding curve and Kd.

E3 (CUL4) = E3 (CUL4) (Homo sapiens (Human), UniProt Q13619); assay: E3 (CUL4) inhibition (Table 1); assay type: biochemical
Experimental: The reaction was incubated for 5 min at 37° C. […] The reaction was incubated for 5 min at room temperature. In the second step (chase), the completed Cdc34b-Ub thiol ester reaction mixture was combined with one third of the completed mono-ubiquitination mixture. The final volume was adjusted to 10 μl with a mix that contained 50 mM Tris-HCl (pH 7.4), 0.5 mM DTT, 0.1 mg/ml of BSA, 5 mM MgCl2, and 2 mM ATP. Compounds were added where indicated. The chase reaction was incubated for 10 min at 37° C. The reaction products were separated by 4-20% SDS-polyacrylamide gel electrophoresis. The reaction scheme was identical to the one described above for FIGS. 12A-B. […] The reaction products, separated by SDS-PAGE, were visualized and analyzed by phospho-imaging using Typhoon 9500 scanner.

E3 (CUL1) = E3 (CUL1) (Homo sapiens (Human), UniProt Q13616); assay: E3 (CUL1) inhibition (Table 1); assay type: biochemical
Experimental: as §1

cancer cells = assay: Apoptosis, Annexin V flow cytometry; assay type: cell-based; conditions: Table 1
Experimental: Cells (5×10^4) were seeded 24 hours before compound treatment. Compound was added to the culture media and cells were cultured with the compound for 48 hours. The treated cells were then transferred into 5 ml flow cytometry tubes and the well was washed once with PBS to collect any remaining cells. The cells were then pelleted at 500×g for 5 min with a Beckman CS-6KR centrifuge at 4° C. After removal of supernatant, the cells pellet was washed with Annexin V binding buffer (10 mM Hepes-NaOH, pH 7.4, 150 mM NaCl, 5 mM KCl, 1 mM MgCl2, and 1.8 mM CaCl2). Cells were pelleted once again and incubated in the dark with Annexin V-FITC (2 μg/ml) in binding buffer for 5 min then analyzed using LSRFortessa flow cytometer (BD).

[3] = Table 9, read-out: IC50 (FRET CUL1 assay)
[4] = Table 9, read-out: E3 Binding Kd (MST with CUL1 CTD)
[5] = Table 5, MST, read-out: E3 binding Kd

Chain of E3 (CUL1) (Q13616 whole entry): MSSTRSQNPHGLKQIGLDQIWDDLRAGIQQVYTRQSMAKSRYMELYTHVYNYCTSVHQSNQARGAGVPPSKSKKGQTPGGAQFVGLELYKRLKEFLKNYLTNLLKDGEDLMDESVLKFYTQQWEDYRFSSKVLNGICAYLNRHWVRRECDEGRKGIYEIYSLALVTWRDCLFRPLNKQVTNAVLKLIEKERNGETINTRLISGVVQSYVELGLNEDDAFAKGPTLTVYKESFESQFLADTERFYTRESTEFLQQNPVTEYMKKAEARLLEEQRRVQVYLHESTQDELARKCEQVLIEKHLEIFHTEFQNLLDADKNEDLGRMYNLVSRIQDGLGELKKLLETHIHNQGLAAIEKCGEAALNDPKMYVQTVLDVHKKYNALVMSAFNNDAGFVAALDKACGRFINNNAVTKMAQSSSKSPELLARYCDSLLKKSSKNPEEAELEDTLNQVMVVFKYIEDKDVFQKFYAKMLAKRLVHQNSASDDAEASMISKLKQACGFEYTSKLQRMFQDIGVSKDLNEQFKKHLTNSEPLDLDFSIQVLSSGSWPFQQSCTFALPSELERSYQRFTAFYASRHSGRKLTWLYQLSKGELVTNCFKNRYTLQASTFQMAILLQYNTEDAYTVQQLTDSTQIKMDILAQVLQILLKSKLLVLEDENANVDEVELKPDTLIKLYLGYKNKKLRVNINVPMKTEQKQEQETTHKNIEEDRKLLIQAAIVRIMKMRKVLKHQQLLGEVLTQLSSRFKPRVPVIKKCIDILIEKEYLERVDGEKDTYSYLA
Chain of E3 (CUL1) (P62877 whole entry partner): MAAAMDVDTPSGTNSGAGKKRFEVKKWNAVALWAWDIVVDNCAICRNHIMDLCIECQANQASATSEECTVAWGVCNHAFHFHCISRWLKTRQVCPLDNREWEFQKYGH
T1 sequence (Q13616 411-776): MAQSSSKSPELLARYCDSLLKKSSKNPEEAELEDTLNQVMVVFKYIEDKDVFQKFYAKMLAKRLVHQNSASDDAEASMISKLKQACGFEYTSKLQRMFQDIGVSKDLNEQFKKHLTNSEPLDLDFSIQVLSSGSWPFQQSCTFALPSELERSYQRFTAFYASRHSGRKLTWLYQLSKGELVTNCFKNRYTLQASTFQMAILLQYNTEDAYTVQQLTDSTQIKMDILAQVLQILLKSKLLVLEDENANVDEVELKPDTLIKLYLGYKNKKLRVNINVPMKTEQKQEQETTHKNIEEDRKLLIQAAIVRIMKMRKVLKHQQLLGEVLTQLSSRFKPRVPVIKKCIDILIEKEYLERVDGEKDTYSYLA
T1 sequence (P62877 whole entry partner): as the sequence (P62877 whole entry partner) above
Chain of E3 (CUL4) (Q13619 whole entry): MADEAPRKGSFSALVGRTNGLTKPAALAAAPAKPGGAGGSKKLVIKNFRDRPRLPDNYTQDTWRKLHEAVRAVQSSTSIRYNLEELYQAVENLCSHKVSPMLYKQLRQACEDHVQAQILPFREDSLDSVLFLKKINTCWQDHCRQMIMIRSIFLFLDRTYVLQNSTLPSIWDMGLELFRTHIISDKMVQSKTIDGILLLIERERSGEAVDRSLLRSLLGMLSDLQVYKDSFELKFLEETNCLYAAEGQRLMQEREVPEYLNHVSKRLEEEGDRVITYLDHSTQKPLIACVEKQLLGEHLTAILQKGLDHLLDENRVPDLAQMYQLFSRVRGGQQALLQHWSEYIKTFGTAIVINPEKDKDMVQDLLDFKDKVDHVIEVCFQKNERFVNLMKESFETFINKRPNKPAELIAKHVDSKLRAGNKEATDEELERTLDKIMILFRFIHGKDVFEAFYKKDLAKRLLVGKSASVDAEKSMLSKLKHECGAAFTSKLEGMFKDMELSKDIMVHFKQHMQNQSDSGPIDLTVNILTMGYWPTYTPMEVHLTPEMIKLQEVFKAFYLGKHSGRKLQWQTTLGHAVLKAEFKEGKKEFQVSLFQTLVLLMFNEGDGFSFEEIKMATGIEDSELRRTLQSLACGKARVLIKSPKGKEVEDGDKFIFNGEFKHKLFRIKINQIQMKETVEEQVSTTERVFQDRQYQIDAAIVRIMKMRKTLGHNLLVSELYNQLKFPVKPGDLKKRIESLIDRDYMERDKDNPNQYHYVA
Chain of E3 (CUL4) (P62877 whole entry partner): as the sequence (P62877 whole entry partner) above

Row | EC50 (E3 (CUL4)) [µM] | EC50 (E3 (CUL1)) [µM] | EC50 (cancer cells) [µM] | SMILES | further results
1 | ~10 | 5.4 | ~8 | O=c1c(-c2cnn(Cc3ccc(C(F)(F)F)cc3)c2)c(C(F)(F)F)oc2c(O)c(O)ccc12 [MSSM-RJD-MM-014, 7,8-dihydroxy-2-(trifluoromethyl)-3-(1-(4-(trifluoromethyl)benzyl)-1H-pyrazol-4-yl)-4H-chromen-4-one] | 
2 | > 10 | 8.2 | > 20 | O=c1c(-c2cnn(Cc3ccccc3Cl)c2)c(C(F)(F)F)oc2c(O)c(O)ccc12 [MSSM-RJD-MM-015, 3-(1-(2-chlorobenzyl)-1H-pyrazol-4-yl)-7,8-dihydroxy-2-(trifluoromethyl)-4H-chromen-4-one] | 
3 | > 10 | 30 | > 20 | O=c1c(-c2cnn(Cc3ccccc3F)c2)c(C(F)(F)F)oc2c(O)c(O)ccc12 [MSSM-RJD-MM-022, 3-(1-(2-fluorobenzyl)-1H-pyrazol-4-yl)-7,8-dihydroxy-2-(trifluoromethyl)-4H-chromen-4-one] | 
4 | > 10 | 8.4 | 10 to 20 | O=c1c(-c2cnn(Cc3cccc(Cl)c3)c2)c(C(F)(F)F)oc2c(O)c(O)ccc12 [MSSM-RJD-MM-023, 3-(1-(3-chlorobenzyl)-1H-pyrazol-4-yl)-7,8-dihydroxy-2-(trifluoromethyl)-4H-chromen-4-one] | 
5 | > 10 | 7.9 | 10 to 20 | O=c1c(-c2cnn(Cc3cccc(F)c3)c2)c(C(F)(F)F)oc2c(O)c(O)ccc12 [MSSM-RJD-MM-024, 3-(1-(3-fluorobenzyl)-1H-pyrazol-4-yl)-7,8-dihydroxy-2-(trifluoromethyl)-4H-chromen-4-one] | 
6 | > 10 | 6.5 | > 20 | O=c1c(-c2cnn(Cc3cc(C(F)(F)F)ccc3F)c2)c(C(F)(F)F)oc2c(O)c(O)ccc12 [MSSM-RJD-MM-026, 3-(1-(2-fluoro-5-(trifluoromethyl)benzyl)-1H-pyrazol-4-yl)-7,8-dihydroxy-2-(trifluoromethyl)-4H-chromen-4-one] | 
7 | > 10 | 5.6 | 10 to 20 | O=c1c(-c2cnn(Cc3cc(C(F)(F)F)ccc3Cl)c2)c(C(F)(F)F)oc2c(O)c(O)ccc12 [MSSM-RJD-MM-027, 3-(1-(2-chloro-5-(trifluoromethyl)benzyl)-1H-pyrazol-4-yl)-7,8-dihydroxy-2-(trifluoromethyl)-4H-chromen-4-one] | 
8 | ~10 | 7.3 | ~20 | O=c1c(-c2cnn(Cc3cc(F)ccc3C(F)(F)F)c2)c(C(F)(F)F)oc2c(O)c(O)ccc12 [MSSM-RJD-MM-028] | 

Further lines, the molecule ahead of its results:

Row | SMILES | EC50 (E3 (CUL4)) [µM] | EC50 (E3 (CUL1)) [µM] | EC50 (cancer cells) [µM] | further results
9 | O=c1c(Oc2ccc(Br)cc2)c(C(F)(F)F)oc2c(O)c(O)ccc12 |  |  |  | IC50 (ROC1-CUL1 CTD [1]; [3]): 3.5 µM; Kd (ROC1-CUL1 CTD [2]; [4]): 1.42 ± 0.26 µM
10 | O=c1c(Oc2cccc(Br)c2)c(C(F)(F)F)oc2c(O)c(O)ccc12 |  |  |  | IC50 (ROC1-CUL1 CTD [1]; [3]): 2.4 µM; Kd (ROC1-CUL1 CTD [2]; [4]): 1.9 ± 0.28 µM
11 | O=c1c(Oc2ccccc2Br)c(C(F)(F)F)oc2c(O)c(O)ccc12 |  |  |  | IC50 (ROC1-CUL1 CTD [1]; [3]): 2.7 µM; Kd (ROC1-CUL1 CTD [2]; [4]): 1.95 ± 0.44 µM
12 | O=c1c(Oc2ccc(Br)cc2)c(C(F)(F)F)oc2c(O)c(O)c(Br)cc12 |  |  |  | IC50 (ROC1-CUL1 CTD [1]; [3]): 8.3 µM; Kd (ROC1-CUL1 CTD [2]; [4]): 1.19 ± 0.36 µM
13 | Cc1oc2c(O)c(O)ccc2c(=O)c1Oc1ccccc1 [#33-2, 7,8-dihydroxy-2-methyl-3-phenoxy-4H-chromen-4-one] |  |  |  | drop in IC50 relative to #33 (ROC1-CUL1 CTD [1]): 7 fold; IC50 (ROC1-CUL1 CTD [1]; Table 5, read-out: E3 inhibition IC50): 8.9 µM; reduction of binding Kd relative to #33 (ROC1-CUL1 CTD [2]): 8 fold; Kd (ROC1-CUL1 CTD [2]; [5]): 15 µM
14 | COc1ccc2c(=O)c(Oc3ccccc3)c(C)oc2c1OC [#33-3, 7,8-dimethoxy-2-methyl-3-phenoxy-4H-chromen-4-one] |  |  |  | E3 inhibition IC50 (ROC1-CUL1 CTD [1]; Table 5): No inhibition; E3 inhibition (ROC1-CUL1 CTD [1]): No inhibition; Kd (ROC1-CUL1 CTD [2]; [5]): > 500 µM
15 | O=c1c(Oc2ccccc2)c(C(F)(F)F)oc2c3c(ccc12)OCCO3 [#33-5, 8-phenoxy-9-(trifluoromethyl)-2,3-dihydro-7H-[1,4]dioxino[2,3-h]chromen-7-one] |  |  |  | E3 inhibition IC50 (ROC1-CUL1 CTD [1]; Table 5): No inhibition; E3 inhibition (ROC1-CUL1 CTD [1]): No inhibition; Kd (ROC1-CUL1 CTD [2]; [5]): 48 µM
16 | O=c1c(Oc2ccccc2)c(C(F)(F)F)oc2cc(O)ccc12 [#33-7, 7-hydroxy-3-phenoxy-2-(trifluoromethyl)-4H-chromen-4-one] |  |  |  | E3 inhibition IC50 (ROC1-CUL1 CTD [1]; Table 5): No inhibition; E3 inhibition (ROC1-CUL1 CTD [1]): No inhibition; reduction of binding Kd relative to #33 (ROC1-CUL1 CTD [2]): > 30 fold; Kd (ROC1-CUL1 CTD [2]; [5]): 57 µM
17 | COc1ccc2c(=O)c(-c3cnn(Cc4ccccc4Cl)c3)c(C(F)(F)F)oc2c1OC [MSSM-RJD-MM-012, 3-(1-(2-chlorobenzyl)-1H-pyrazol-4-yl)-7,8-dimethoxy-2-(trifluoromethyl)-4H-chromen-4-one] | > 10 | > 100 | > 20 | 
18 | O=c1c(-c2cnn(Cc3ccc(F)cc3)c2)c(C(F)(F)F)oc2c(O)c(O)ccc12 [MSSM-RJD-MM-013, 3-(1-(4-fluorobenzyl)-1H-pyrazol-4-yl)-7,8-dihydroxy-2-(trifluoromethyl)-4H-chromen-4-one] | > 30 | 7.2 | > 20 | 
19 | COc1ccc2c(=O)c(-c3cnn(Cc4ccccc4F)c3)c(C(F)(F)F)oc2c1OC [MSSM-RJD-MM-016, 3-(1-(2-fluorobenzyl)-1H-pyrazol-4-yl)-7,8-dimethoxy-2-(trifluoromethyl)-4H-chromen-4-one] | > 10 | > 100 | > 20 | 
20 | COc1ccc2c(=O)c(-c3cnn(Cc4cccc(C(F)(F)F)c4Cl)c3)c(C(F)(F)F)oc2c1OC [MSSM-RJD-MM-020] | > 10 | 53 | > 20 | 
21 | COc1ccc2c(=O)c(-c3cnn(Cc4cc(F)ccc4C(F)(F)F)c3)c(C(F)(F)F)oc2c1OC [MSSM-RJD-MM-021, 3-(1-(5-fluoro-2-(trifluoromethyl)benzyl)-1H-pyrazol-4-yl)-7,8-dimethoxy-2-(trifluoromethyl)-4H-chromen-4-one] | > 10 | 66 | ~20 | 
22 | Cc1cccc(Cn2cc(-c3c(C(F)(F)F)oc4c(O)c(O)ccc4c3=O)cn2)c1 [MSSM-RJD-MM-025, 7,8-dihydroxy-3-(1-(3-methylbenzyl)-1H-pyrazol-4-yl)-2-(trifluoromethyl)-4H-chromen-4-one] | > 10 | 3.9 | 10 to 20 | 
23 | O=c1c(Oc2ccccc2)c(C(F)(F)F)oc2c(O)c(O)c(Br)cc12 [[drawing 256]] |  |  |  | IC50 (ROC1-CUL1 CTD [1]; [3]): 3.3 µM
